Structures are written as SMILES. A value given as a limit tells only on which side of the number the result lay.

The values that follow come from patent US20230000842A1, “METHODS OF TREATING CARTILAGE DISORDERS THROUGH INHIBITION OF CLK AND DYRK” (SAMUMED, LLC, priority 2019, published 2023).

The target in one experiment is CLK2 kinase (Homo sapiens, UniProt P49760). Description: CLK2 kinase activity assay (Z-lyte FRET).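 Also: FRET read-out as coumarin to fluorescein emission ratio, unphosphorylated peptide as 0% and phosphorylated peptide as 100% controls, duplicate reactions, non-linear regression fit of dose-response curves.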 Format: biochemical. The settings on record: Z-lyte Ser/Thr 6 peptide, 60 μM ATP, 1 h at room temperature.
Sequence of CLK2 kinase (P49760 whole entry): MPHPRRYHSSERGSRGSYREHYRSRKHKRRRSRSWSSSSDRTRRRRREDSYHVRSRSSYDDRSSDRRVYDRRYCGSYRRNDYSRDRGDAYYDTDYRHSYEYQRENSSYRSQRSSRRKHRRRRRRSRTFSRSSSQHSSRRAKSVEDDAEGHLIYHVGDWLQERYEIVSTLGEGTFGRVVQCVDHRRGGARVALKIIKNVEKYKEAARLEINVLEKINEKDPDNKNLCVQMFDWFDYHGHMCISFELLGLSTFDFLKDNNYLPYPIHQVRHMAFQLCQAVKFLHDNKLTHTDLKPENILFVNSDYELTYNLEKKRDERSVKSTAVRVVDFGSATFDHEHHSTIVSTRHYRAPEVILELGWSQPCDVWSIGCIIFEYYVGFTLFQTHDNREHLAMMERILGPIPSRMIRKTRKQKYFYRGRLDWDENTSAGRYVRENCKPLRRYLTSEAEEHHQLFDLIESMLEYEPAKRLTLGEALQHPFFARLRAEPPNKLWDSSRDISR
The target in the next experiment is CLK3 kinase (Homo sapiens, UniProt P49761). In words: CLK3 kinase activity assay (Z-lyte FRET).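 Also: kinase activity read as coumarin/fluorescein emission ratio by FRET, unphosphorylated peptide as 0% and phosphorylated peptide as 100% control, values from non-linear regression of dose-response curves.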 Format: biochemical. The settings on record: Z-lyte Ser/Thr 18 peptide, 156 μM ATP, 1 h at room temperature.
Sequence of CLK3 kinase (P49761 whole entry): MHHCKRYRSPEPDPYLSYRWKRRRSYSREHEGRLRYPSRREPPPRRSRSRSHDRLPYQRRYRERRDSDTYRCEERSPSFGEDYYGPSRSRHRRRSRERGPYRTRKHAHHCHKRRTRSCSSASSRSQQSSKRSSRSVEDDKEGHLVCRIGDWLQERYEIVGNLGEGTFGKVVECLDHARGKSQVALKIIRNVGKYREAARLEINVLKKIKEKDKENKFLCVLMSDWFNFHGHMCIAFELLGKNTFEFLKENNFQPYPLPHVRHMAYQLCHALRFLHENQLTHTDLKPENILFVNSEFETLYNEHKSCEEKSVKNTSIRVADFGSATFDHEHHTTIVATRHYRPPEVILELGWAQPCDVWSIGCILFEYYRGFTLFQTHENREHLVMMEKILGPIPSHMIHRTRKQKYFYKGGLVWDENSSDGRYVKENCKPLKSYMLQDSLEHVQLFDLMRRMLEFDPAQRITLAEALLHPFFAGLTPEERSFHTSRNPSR
Experiment [1] relates to primary human mesenchymal stem cells (hMSCs). Description: Chondrogenesis screening using primary human mesenchymal stem cells. Format: cell-based. Particulars: Homo sapiens, Mesenchymal stem cells, hMSC chondrogenesis; for Emax: maximum activity relative to TGF-β3 (10 ng/mL) positive control, read-out: Max. Activity as % TGF-β3 activity; for EC50: concentration required to induce 50% levels of chondrogenesis with TGF-β3 as positive control, read-out: Conc (nM) of 50% TGF-β3 activity. A digest of the protocol: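 Derived values are EC50 for 50% chondrogenesis, maximal activity and the dose giving it. These come from nodule area in passage 3–6 primary hMSCs, expressed as fold change over the mean of 3 same-plate DMSO wells, 2–3 replicates per concentration. TGF-β3 served as positive control.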

Experiment [2] relates to Wnt pathway activity (SW480 colon carcinoma cells stably expressing the Sp5-Luc reporter). Description: Wnt pathway activity screening assay (Sp5-Luc reporter gene assay). The settings on record: Homo sapiens, SW480, Table 4; SW480 cells stably expressing Sp5-Luc reporter, 10-point dose-response from 10 μM, 36 to 48 hours.

Method for CLK3 kinase: This is a non-radioactive assay using fluorescence resonance energy transfer (FRET) between coumarin and fluorescein to detect kinase activity which is represented as a ratio of coumarin emission/fluorescein emission.
The mixture was allowed to incubate with the representative compounds for one hour at room temperature. All reactions were performed in duplicate. Unphosphorylated (“0% Control”) and phosphorylated (“100% control”) forms of Ser/Thr 18 served as control reactions. Additionally, an 11-point dose-response curve of Staurosporine (1 μM top) was run to serve as a positive compound control.
After incubation, Development Reagent A was diluted in Development Buffer then added to the reaction and allowed to further incubate for one hour at room temperature.
Dose-response curves were generated and inhibitory concentration (IC50) values were calculated using non-linear regression curve fit in the Dotmatics' Studies Software (Bishops Stortford, UK).

`Fc1cccc(-c2cncc3[nH]c(-c4n[nH]c5ncc(-c6cncc(CN7CCCCC7)c6)cc45)cc23)c1` [compound 313]: the EC50 is 18 nM at CLK2 kinase, 295 nM on CLK3 kinase and 3120 nM in experiment [2]. For the same compound, in experiment [1], the Emax amounted to 108%.

Consider `CC(C)Nc1cncc(-c2cnc3[nH]nc(-c4nc5c(-c6cccc(F)c6)cncc5[nH]4)c3c2)c1` [compound 131], for which the EC50 was 13 nM at CLK2 kinase, 160 nM at CLK3 kinase, 30 nM in experiment [1] and 1.2 nM in experiment [2]. Further, the Emax in experiment [1] amounted to 504%.

With `c1cnc2[nH]c(-c3n[nH]c4ccc(-c5cncc(OCCN6CCCC6)c5)cc34)cc2c1` [compound 453], the values for the EC50 (at CLK2 kinase; at CLK3 kinase; in experiment [2]) were 2 nM, 246 nM and 3300 nM, respectively. In addition, the Emax in experiment [1] came out at 42.7%.

On to `CC(C)(C)CC(=O)Nc1cncc(-c2ccc3[nH]nc(-c4cc5c(-c6ccoc6)ccnc5[nH]4)c3c2)c1` [compound 500], for which the EC50 on CLK2 kinase is 12 nM; on CLK3 kinase, 117 nM; in experiment [2], 890 nM. In addition, the Emax in experiment [1] stood at 21.2%.

On to `FC1(F)CCN(Cc2cncc(-c3cc4c(-c5cc6cccnc6[nH]5)n[nH]c4cn3)c2)C1` [compound 445], for which the results for the EC50 (on CLK2 kinase; at CLK3 kinase; in experiment [2]) were 5 nM, 203 nM and 1350 nM, respectively. Besides, the Emax in experiment [1] came out at 45.3%.

As to `c1csc(-c2nccc3[nH]c(-c4n[nH]c5cnc(-c6cncc(CN7CCCCC7)c6)cc45)cc23)c1` [compound 509], the EC50 on CLK2 kinase turned out to be 6 nM; at CLK3 kinase, 140 nM; in experiment [1] it was 10 nM; in experiment [2] it was 3680 nM. The Emax in experiment [1] is 59%.

Regarding `CC(C)CC(=O)Nc1cncc(-c2ccc3[nH]nc(-c4cc5c(-c6ccncc6)nccc5[nH]4)c3c2)c1` [compound 387], the values for the EC50 (on CLK2 kinase; at CLK3 kinase; in experiment [2]) were 5 nM, 132 nM and more than 10000 nM, respectively. Further, the Emax in experiment [1] was 95.5%.

With `Cc1cn(-c2cncc3[nH]c(-c4n[nH]c5ccc(-c6cncc(NC(=O)C7CCC7)c6)nc45)nc23)cn1` [compound 227], the EC50 was 10 nM at CLK2 kinase, 1300 nM on CLK3 kinase and more than 10000 nM in experiment [2]. The Emax in experiment [1] was determined as 47.2%.

`CCC(=O)Nc1cncc(-c2cnc3[nH]nc(-c4nc5c(-c6cccs6)cncc5[nH]4)c3c2)c1` [compound 255]: the EC50 at CLK2 kinase came to 3 nM; at CLK3 kinase, 62 nM; in experiment [2], 4 nM. Also, the Emax in experiment [1] turned out to be 69.8%.

As for `CN1CCN(c2nccc3[nH]c(-c4n[nH]c5ccc(-c6cncc(N)c6)nc45)nc23)CC1` [compound 214], the EC50 was 2 nM on CLK2 kinase, 344 nM on CLK3 kinase, 100 nM in experiment [1] and more than 10000 nM in experiment [2]. For the same compound, the Emax in experiment [1] is 135%.

`O=C(Nc1cncc(-c2cc3c(-c4cc5c(-c6ccc(F)cc6)nccc5[nH]4)n[nH]c3cn2)c1)C1CC1` [compound 314]: the EC50 at CLK2 kinase is 10 nM; at CLK3 kinase it was 202 nM; in experiment [1], 30 nM; in experiment [2], 844 nM. Further, the Emax in experiment [1] turned out to be 96.2%.

Regarding `Nc1cncc(-c2ccc3[nH]nc(-c4cc5c(-c6ccncc6)nccc5[nH]4)c3c2)c1` [compound 377], the EC50 worked out at 7 nM at CLK2 kinase, 113 nM at CLK3 kinase and 658 nM in experiment [2]. Further, in experiment [1], the Emax came out at 76.8%.

Take `CC(C)C(=O)Nc1cncc(-c2cnc3[nH]nc(-c4cc5c(-c6cc(F)cc(CNS(C)(=O)=O)c6)cncc5[nH]4)c3c2)c1` [compound 519]: the EC50 at CLK2 kinase is 18 nM; on CLK3 kinase, 236 nM; in experiment [2], more than 10000 nM. For the same compound, the Emax in experiment [1] was 59.6%.

With `O=C(Nc1cncc(-c2ccc3[nH]nc(-c4cc5c(-c6cccnc6)cncc5[nH]4)c3c2)c1)C1CCCC1` [compound 356], the EC50 worked out at 6 nM at CLK2 kinase, 78 nM at CLK3 kinase and 1350 nM in experiment [2]. Besides, in experiment [1], the Emax was 45.5%.

For `CN1CCN(c2ccnc3[nH]c(-c4n[nH]c5ccc(-c6cncc(NC(=O)CC(C)(C)C)c6)nc45)cc23)CC1` [compound 480], the EC50 on CLK2 kinase turned out to be 7 nM; at CLK3 kinase it was 186 nM; in experiment [2] it was 3870 nM. The Emax in experiment [1] turned out to be 30.3%.

For `C[C@@H]1CN(c2ccc(NC(=O)c3n[nH]c4ccc(-c5cncc(CN6CCCCC6)c5)cc34)cn2)C[C@H](C)O1` [compound 92], the EC50 at CLK2 kinase stood at 1 nM; at CLK3 kinase, 89 nM; in experiment [1] it was 2700 nM; in experiment [2] it was 2.8 nM. Moreover, in experiment [1], the Emax turned out to be 129%.

Turning to `O=C(Nc1cnccc1NC(=O)C1CC1)c1n[nH]c2ccc(-c3cncc(CN4CCCCC4)c3)cc12` [compound 86], the EC50 amounted to 3 nM on CLK2 kinase, 1270 nM at CLK3 kinase, 30 nM in experiment [1] and 120 nM in experiment [2]. The Emax in experiment [1] came out at 53.7%.

For the compound `CC(C)CC(=O)Nc1cncc(-c2ccc3[nH]nc(-c4cc5c(N6CCN(C)CC6)ccnc5[nH]4)c3n2)c1` [compound 477], the EC50 at CLK2 kinase came out at 3 nM; on CLK3 kinase, 204 nM; in experiment [2], 3450 nM. In addition, in experiment [1], the Emax came out at 49.5%.

As to `Nc1cncc(-c2ccc3[nH]nc(-c4nc5c(-c6ccccc6F)nccc5[nH]4)c3n2)c1` [compound 169], the EC50 was 1 nM at CLK2 kinase, 50 nM at CLK3 kinase, 10 nM in experiment [1] and more than 10000 nM in experiment [2]. Besides, in experiment [1], the Emax was 108%.

Regarding `c1cncc(-c2ccc3[nH]nc(-c4nc5cnccc5[nH]4)c3n2)c1` [compound 201], the EC50 on CLK2 kinase is 15 nM; at CLK3 kinase, 2270 nM; in experiment [1], 30 nM; in experiment [2] it was more than 10000 nM. Further, the Emax in experiment [1] came to 54.8%.

Consider `Nc1cncc(-c2cnc3[nH]nc(-c4cc5c(-c6ccccc6F)ccnc5[nH]4)c3c2)c1` [compound 322], for which the EC50 is 6 nM on CLK2 kinase, 66 nM on CLK3 kinase and 745 nM in experiment [2]. The Emax in experiment [1] was determined as 27.6%.

As for `O=C(Nc1cncc(-c2cnc3[nH]nc(-c4nc5c(-c6cccc(F)c6)cncc5[nH]4)c3c2)c1)C1CC1` [compound 126], the EC50 on CLK2 kinase was determined as 12 nM; at CLK3 kinase, 7330 nM; in experiment [1], 10 nM; in experiment [2], 11 nM. In experiment [1], the Emax worked out at 148%.

Take `CN(C)CCNc1cc(F)cc(-c2ccnc3[nH]c(-c4n[nH]c5cnc(-c6cncc(NC(=O)C(C)(C)C)c6)cc45)cc23)c1` [compound 513]: the EC50 on CLK2 kinase was found to be 6 nM; on CLK3 kinase it was 49 nM; in experiment [1], 10 nM; in experiment [2], 386 nM. Besides, the Emax in experiment [1] stood at 87.3%.

For `FC1(F)CCN(Cc2cncc(-c3cc4c(-c5nc6c(N7CCCCC7)cncc6[nH]5)n[nH]c4cn3)c2)C1` [compound 212], the EC50 was 5 nM on CLK2 kinase, 89 nM on CLK3 kinase, 10 nM in experiment [1] and 116 nM in experiment [2]. The Emax in experiment [1] is 100%.

For the compound `O=C(Nc1cncc(-c2cnc3[nH]nc(-c4nc5c(-c6cccc(F)c6)cncc5[nH]4)c3c2)c1)N1CCOCC1` [compound 127], the figures for the EC50 (on CLK2 kinase; at CLK3 kinase; in experiment [2]) were 6 nM, 42 nM and 9 nM, respectively. The Emax in experiment [1] worked out at 96.8%.

On to `Nc1cncc(-c2cc3c(-c4cc5c(N6CCCCC6)cncc5[nH]4)n[nH]c3cn2)c1` [compound 456], for which the EC50 at CLK2 kinase was 2 nM; on CLK3 kinase, 94 nM; in experiment [1], 30 nM; in experiment [2] it was 2960 nM. Besides, in experiment [1], the Emax was 93.5%.

Consider `Nc1cncc(-c2ccc3[nH]nc(-c4nc5c(-c6ccccc6F)nccc5[nH]4)c3c2)c1` [compound 165], for which the EC50 was 2 nM on CLK2 kinase, 20 nM on CLK3 kinase, 100 nM in experiment [1] and 8.8 nM in experiment [2]. In experiment [1], the Emax was found to be 61.9%.

In the case of `O=C(Nc1cncc(-c2ccc3[nH]nc(-c4cc5c(-c6cccnc6)nccc5[nH]4)c3c2)c1)c1ccccc1` [compound 357], the EC50 at CLK2 kinase turned out to be 3 nM; at CLK3 kinase, 43 nM; in experiment [2], 421 nM. In addition, in experiment [1], the Emax turned out to be 19.4%.

For `O=C(Nc1cncc(-c2ccc3[nH]nc(-c4nc5c(-c6ccc(Cl)s6)nccc5[nH]4)c3n2)c1)C1CCC1` [compound 267], the EC50 at CLK2 kinase is 8 nM; on CLK3 kinase, 9840 nM; in experiment [1], 30 nM; in experiment [2], 823 nM. Further, in experiment [1], the Emax is 60.2%.

With `CC(C)Nc1cncc(-c2cc3c(-c4cc5c(-c6cccnc6)ccnc5[nH]4)n[nH]c3cn2)c1` [compound 363], the EC50 was 8 nM at CLK2 kinase, 9840 nM on CLK3 kinase, 10 nM in experiment [1] and more than 10000 nM in experiment [2]. Further, in experiment [1], the Emax was 77%.

Regarding `CC(C)(C)C(=O)Nc1cncc(-c2ccc3[nH]nc(-c4nc5c(N6CCCCC6)cncc5[nH]4)c3c2)c1` [compound 209], the EC50 at CLK2 kinase came to 11 nM; on CLK3 kinase it was 94 nM; in experiment [1], 100 nM; in experiment [2], 41 nM. For the same compound, the Emax in experiment [1] was found to be 114%.
